These results are taken from patent US20130310306A1, “HUMAN LACTOFERRIN DERIVED PEPTIDES AND THEIR USE” (PharmaSurgics In Sweden AB, priority 2011, published 2013).

“Also recorded” adds a separate entry of the source. Bounds are passed on as bounds.

The test system of one test is S. aureus (CCUG 1800). Kind of test: Minimal microbicidal concentration (MMC99) assay, S. aureus. To be noted: for MMC99 μM in 1% BHI medium / MMC99 μM in 50% SWF: 2 hours; for MMC99 μM in 50% SWF: 50% heat inactivated simulated wound fluid. It counts as cell-based. The protocol: Antimicrobial Activity was Measured as Bactericidal Effect on S. Aureus Using Minimal Microbicidal Concentration, MMC99, Assay)
S. aureus (#1800; CCUG, Gothenburg, Sweden) cultured on blood-agar plates [Columbia agar (Oxoid, Basingstoke, UK) supplemented with 5% defibrinated horse blood (National Veterinary Institute (SVA), Uppsala, Sweden)] were transferred to brain heart infusion broth (3.7% BHI; Difco, BD Diagnostics, Franklin Lakes, N.J., USA) and incubated in a shaker at 250 rpm+37° C. over night. The culture was thereafter be diluted 1:10 in fresh BHI broth and incubated for additional two hours to reach log-phase growth. The bacteria were pelleted and suspended in 1% BHI medium (BHI broth diluted 100 times in ultra-pure water) to a concentration of 10^7 bacteria/ml as estimated by measuring optical density at 600 nm. Peptides were serially diluted by two-fold steps from 160 μM to 1.25 μM in 1% BHI medium. The peptides (100 μl) were thereafter incubated with bacteria (5 μl á 10^7 bact./ml) for 2 hours at +37° C. Drops (5 μl) of the suspension were placed on blood agar plates. The blood agar plates were incubated over night at +37° C. The MMC99 values, i.e. the lowest peptide concentration needed to achieve a 99% reduction of viable bacteria, were recorded (Table 3). The concentration of the bacterial suspension used in the assay was confirmed by viable counts on blood agar plates.
S. aureus (#1800; CCUG, Gothenburg, Sweden) cultured on blood-agar plates [Columbia agar (Oxoid, Basingstoke, UK) supplemented with 5% defibrinated horse blood (National Veterinary Institute (SVA), Uppsala, Sweden)] were transferred to brain heart infusion broth (3.7% BHI; Difco, BD Diagnostics, Franklin Lakes, N.J., USA) and incubated in a shaker at 250 rpm+37° C. over night. The culture was thereafter be diluted 1:10 in fresh BHI broth and incubated for additional two hours to reach log-phase growth. The bacteria were pelleted and suspended in 1% BHI medium (BHI broth diluted 100 times in ultra-pure water) to a final concentration of 10^7 bacteria/ml as estimated by measuring optical density at 600 nm. Peptides were serially diluted by two-fold steps from 400 μM to 0.78 μM in either 1% BHI medium or in 50% heat inactivated simulated wound fluid [SWF, containing 1 part 0.1% peptone (Oxoid, Basingstoke, UK) in saline and 1 part fetal bovine serum, diluted 2 times in ultra-pure water].
The peptides (100 μl) were thereafter incubated with bacteria (5 μl á 10^7 bact./ml) for 2 hours at +37° C. Drops (5 μl) of the suspension were placed on blood agar plates. The blood agar plates were incubated over night at +37° C. The MMC99 values, i.e. the lowest peptide concentration needed to achieve a 99% reduction of viable bacteria were recorded (Table 6). The concentration of the bacterial suspension used in the assay was confirmed by viable counts on blood agar plates.
(§1) The antimicrobial effects of the peptide 265 (SEQ ID NO: 27) was analysed by MMC99 (minimal microbicidal concentration) assay against S. aureus (CCUG 1800), MRSA (CCUG 41879), P. aeruginosa (ATCC 15442), E. coli (CCUG 31246), S. pyogenes (CCUG 4207), P. acnes (CCUG 1794T), S. epidermidis (ATCC12228), K. pneumoniae (ATCC 13883), A. baumannii (ATCC 19606), and C. albicans (ATCC 64549). The peptides were purchased from Biopeptide Company (San Diego, Calif., USA) and Bachem AG (Bubendorf, Switzerland) and results are presented in Table 8A and 8B respectively.
(§2) Peptide was serially diluted in two different assay medium, 1% BHI medium (brain-heart infusion medium) or 50% heat inactivated simulated wound fluid (SWF), and thereafter incubated with the microorganisms for 2 hours. Drops of the suspension were placed on blood agar plates. The MMC99 values, i.e. the lowest peptide concentration needed to achieve a 99% reduction of viable microorganisms, were recorded. As presented in Table 8, the peptide has the ability to kill microorganisms frequently appearing in infections.

Test [1] relates to MRSA (CCUG 41879). Kind of test: MMC99 assay, MRSA. It is filed as cell-based, methicillin resistant S. aureus. To be noted: Table 8A. The protocol:
as §1, §2

Test [2] concerns P. aeruginosa (ATCC 15442). Kind of test: MMC99 assay, P. aeruginosa. It is filed as cell-based. To be noted: Table 8A. The procedure: as §1, §2
The next test relates to E. coli (CCUG 31246). Kind of test: MMC99 assay, E. coli. To be noted: Table 8A. It is filed as cell-based. The protocol:
as §1, §2

The next test relates to P. acnes (CCUG 1794T). Kind of test: MMC99 assay, P. acnes. To be noted: Table 8A. It is filed as cell-based. The protocol: as §1, §2
Another test relates to S. pyogenes (CCUG 4207). The test is described as follows: MMC99 assay, S. pyogenes. It counts as cell-based. As to conditions: Table 8A. The protocol:
as §1, §2

In test [3] the test system is S. epidermidis (ATCC12228). Kind of test: MMC99 assay, S. epidermidis. It is filed as cell-based. As to conditions: Table 8B. The protocol: as §1, §2
In test [4] the test system is K. pneumoniae (ATCC 13883). Kind of test: MMC99 assay, K. pneumoniae. It counts as cell-based. To be noted: Table 8B. The procedure:
as §1, §2

Test [5] concerns A. baumannii (ATCC 19606). Kind of test: MMC99 assay, A. baumannii. It counts as cell-based. As to conditions: Table 8B. The protocol:
as §1, §2

A further test deals with C. albicans (ATCC 64549). Kind of test: MMC99 assay, C. albicans. It counts as cell-based. To be noted: Table 8B. The protocol: as §1, §2
Test [6] concerns MRSA (CCUG 41879). Kind of test: In vivo antimicrobial effect in excision wound model in rats. Details: species or system rat. To be noted: peptide in H2O 0.1, 0.5 and 2 mg/ml, single administration, two hours, vs control (H2O). From the text:
FIG. 4. Dose-response effect of peptide 265 (A) on bacterial colonization of infected excision wounds in rats. […] Results are presented as relative bacterial survival (%) compared to control group ±SEM (n=15 wounds). Statistical significance was estimated by Student's t test. *=p<0.05, **=p<0.01, ***=p<0.001.
The in vivo antimicrobial effects of the peptide 265 (SEQ ID NO: 27) was investigated in an excision wound model in rats. The wounds were inoculated with methicillin resistant S. aureus (MRSA) for two hours, followed by a single administration of peptide or control (H2O) for two hours before termination and harvest of the bacteria.

For the next test, the system named is S. aureus. Kind of test: Antimicrobial effect in infected wounds, ex vivo model on pig skin. To be noted: S. aureus in PBS/serum (50/50); peptide in H2O 0.1, 0.5 and 2 mg/ml, single administration, four hours; vs placebo (H2O). The source says:
FIG. 5. Dose response effect of peptide 265 (A), on bacterial colonization of infected wounds in pig skin. […] Results are presented as relative bacterial survival (%) compared to control group ±SEM (n=10 wounds). Statistical significance was estimated by Student's t test. *=p<0.05, **=p<0.01, ***=p<0.001.
The antimicrobial effects of the peptide 265 (SEQ ID NO: 27) was investigated in an ex vivo model on pig skin. The wounds were inoculated with S. aureus in the presence of PBS/Serum 50/50. Two hours after inoculation the wounds were treated with a single administration of the peptide or placebo (H2O). Four hours after the treatment bacteria were harvested and viable counts of each wound were determined.

The test system of test [7] is TNF-α production in LPS stimulated THP-1 cells. Kind of test: Inhibition of TNF-α production in LPS stimulated THP-1 cells (ELISA). To be noted: mean relative secretion; for TNF-α at 40 μM peptide: stimulated level without peptide = 100%, basal = 0%. (An ELISA detects its analyte on a solid surface through an enzyme-linked reagent.)

Regarding FRQWKRWMRKVFHSWRRW [Peptide 265], the “MMC99 S. aureus 1% BHI” value with S. aureus (CCUG 1800) (1% BHI, Table 8A) stood at 4 µg/mL. Besides, the “MMC99 S. aureus 50% SWF” value in the test with S. aureus (CCUG 1800) (50% SWF, Table 8A) was determined as 8 µg/mL. Further, in the test with S. aureus (CCUG 1800) (screen 2), the “MMC99 μM in 1% BHI medium” value is 6.25 µM and the “MMC99 μM in 50% SWF” value is 12.5 µM. Further, the “MMC99 MRSA 1% BHI” value with MRSA (CCUG 41879) [1] (1% BHI) is 6 µg/mL. In addition, the “MMC99 MRSA 50% SWF” value in the test with MRSA (CCUG 41879) [1] (50% SWF) was found to be 50 µg/mL. In [2] (1% BHI), the “MMC99 P. aeruginosa 1% BHI” value worked out at 4 µg/mL. Also, the “MMC99 P. aeruginosa 50% SWF” value in test [2] (50% SWF) is 134 µg/mL. The “MMC99 E. coli 1% BHI” value in the test with E. coli (CCUG 31246) (1% BHI) was 5 µg/mL. Besides, the “MMC99 E. coli 50% SWF” value with E. coli (CCUG 31246) (50% SWF) is 67 µg/mL. Moreover, the “MMC99 P. acnes 1% BHI” value with P. acnes (CCUG 1794T) (1% BHI) was <3 µg/mL. Further, the “MMC99 P. acnes 50% SWF” value with P. acnes (CCUG 1794T) (50% SWF) worked out at 50 µg/mL. Further, the “MMC99 S. pyogenes 1% BHI” value in the test on S. pyogenes (CCUG 4207) (1% BHI) is <3 µg/mL. Further, the “MMC99 S. pyogenes 50% SWF” value in the test with S. pyogenes (CCUG 4207) (50% SWF) came to 25 µg/mL. Besides, the “MMC99 S. epidermidis 1% BHI” value in test [3] (1% BHI) was <2 µg/mL. Further, the “MMC99 S. epidermidis 50% SWF” value in [3] (50% SWF) is 6 µg/mL. In addition, the “MMC99 K. pneumoniae 1% BHI” value in test [4] (1% BHI) turned out to be 3 µg/mL. For the same sequence, the “MMC99 K. pneumoniae 50% SWF” value in test [4] (50% SWF) amounted to 25 µg/mL. Also, the “MMC99 A. baumannii 1% BHI” value in test [5] (1% BHI) is <2 µg/mL. Also, the “MMC99 A. baumannii 50% SWF” value in [5] (50% SWF) is 12 µg/mL. In addition, the “MMC99 C. albicans 1% BHI” value with C. albicans (ATCC 64549) (1% BHI) came to 6 µg/mL. The “MMC99 C. albicans 50% SWF” value in the test on C. albicans (ATCC 64549) (50% SWF) turned out to be 100 µg/mL. The “bacterial colonization of infected excision wounds in rats” value with MRSA (CCUG 41879) [6] is on record as “significant reduction in bacterial counts in a dose response fashion; also recorded: pronounced antimicrobial effect”. Further, the “bacterial colonization of infected wounds in pig skin” value in the test on S. aureus is recorded as “significant reduction in bacterial counts with a dose response relation; also recorded: highly effective”. In [7] (screen 2), the “TNF-α at 40 μM peptide” value was determined as 13.8%, the “TNF-α at 4 μM peptide” value turned out to be 87.0% and the “TNF-α at 10 μM peptide” value is given as 31.1%.
Consider FWWKKAMKKVKGTRRRRG [Peptide 273], for which, in the test with S. aureus (CCUG 1800) (screen 2), the “MMC99 μM in 1% BHI medium” value was 6.25 µM and the “MMC99 μM in 50% SWF” value is 12.5 µM. In test [7] (screen 2), the “TNF-α at 40 μM peptide” value is on record as 52.7%, the “TNF-α at 4 μM peptide” value stood at 86.2% and the “TNF-α at 10 μM peptide” value was 78.6%.
FWWKRAMRKVRGSRRRRG [Peptide 132]: the “MMC99 μM in 1% BHI medium” value with S. aureus (CCUG 1800) (screen 1, 99% reduction of viable bacteria) was determined as 5 µM. The “TNF-α at 40 μM peptide” value in test [7] (screen 1, 6 h) was determined as 18%.
For the sequence FWWKRAMRKVRLSRRRRG [Peptide 270], in the test on S. aureus (CCUG 1800) (screen 2), the “MMC99 μM in 1% BHI medium” value is 6.25 µM and the “MMC99 μM in 50% SWF” value is 12.5 µM. In test [7] (screen 2), the “TNF-α at 40 μM peptide” value is recorded as 23.1%, the “TNF-α at 4 μM peptide” value worked out at 96.2% and the “TNF-α at 10 μM peptide” value came to 71.5%.
On the same counts, the results for FWWKRAMRKVRNSRRRRG [Peptide 271] are 6.25 µM, 6.25 µM, 24.5%, 101.7% and 74.4%.
On the same counts, the results for GRRRRSFQWKRRMRKVR [Peptide 269] are 6.25 µM, 200 µM, 66.2%, 115.7% and 113.8%.
